Laboratory results taken from patent US8664221B2 (Santen Pharmaceutical Co., Ltd., priority 2008, dated 2014).

Key:
[1] = tested on: IL-6 production induced by lipopolysaccharide (LPS) in human corneal epithelial cells (HCE-T); assay: Inhibition of LPS-induced IL-6 production in human corneal epithelial cells (GR agonist activity); type: cell-based; conditions: Corneal epithelial cell, 10 μL of 100 μM test compound solution per well, 4 hours incubation, efficacy relative to DEX
Experimental: In order to evaluate a GR agonist activity of the present compound, the inhibitory effects on the IL-6 production induced by lipopolysaccharide (LPS) in human corneal epithelial cells. IL-6 levels in the conditioned medium were measured using the HTRF human IL-6 Kit (boehringer-Ingelheim, Cat No. 62IL6PEB), and the procedure was carried out according to the protocol attached to the kit. Hereinafter, the specific method will be described.
LPS solution: After LPS was dissolved in phosphate buffer solution (hereinafter referred to as PBS(−)), the resulting solution was diluted with 10% FBS-DMEM/F12 medium, whereby a 1 μg/mL LPS solution was prepared.
After a test compound was dissolved in dimethylsulfoxide (hereinafter referred to as DMSO), the resulting solution was diluted with 10% FBS-DMEM/F12 medium, whereby a 100 μM test compound solution was prepared. A 100 μM DEX solution was prepared by the same method, and the inhibitory ratio of IL-6 production of DEX was evaluated to use for calculating efficacy (% DEX).
Used cell: SV40-immortalized human corneal epithelial cells (HCE-T) (RIKEN)
1) HCE-T cells were harvested, and seeded at 2.0×10^4 cells/0.1 mL/well in a 96-well plate.
2) After incubation overnight, the medium was removed and a 80 μL of new 10% FBS-DMEM/Ham's F12 medium was added into each well.
3) A 10 μL of test compounds solution was added into each well.
4) A 10 μL of LPS solution was added into each well.
5) As a negative control, a 10 μL of 10% FBS-DMEM/Ham's F12 medium was added into each well instead of a test compound solution and a LPS solution.
6) As a positive control, a 10 μL of 10% FBS-DMEM/Ham's F12 medium containing 1% DMSO was added into each well instead of a test compound solution.
7) After 4 hours incubation, supernatants were collected and IL-6 levels in the supernatants were quantitated using the HTRF human IL-6 Kit.
8) The inhibition ratio of IL-6 production (%) was calculated according to the following equation.
The inhibition ratio of IL-6 production (%) was calculated according to the following equation. The inhibition ratio of IL-6 production (%)=100×{1−(IL-6 level in each group−mean value of IL-6 level in negative control)/(mean value of IL-6 level in positive control−mean value of IL-6 level in negative control)} (%)
Furthermore, the inhibition ratio of IL-6 production (efficacy (% DEX)) was also calculated according to the following equation. Efficacy(% DEX)=100×{(mean value of IL-6 inhibition in compound-treated group)/(mean value of IL-6 inhibition in DEX-treated group)} (%) (Results and Discussion)

[2] = tested on: carrageenan-induced paw edema model in rats; assay: Carrageenan-induced paw edema model; type: in vivo; conditions: female Lewis rat; 10 mg/kg oral, 30 minutes before carrageenan; paw volume 3 hr after injection; read-out: Inhibition ratio of paw edema (%)
Experimental: The inhibitory effect for paw edema using carrageenan-induced paw edema model in rats is known as one of the general methods for testing the inhibitory effect on inflammation on the joint and the like. Therefore, the inhibitory effect of the present compound for paw edema was carried out, the inhibition rate of paw edema was calculated, and then the anti-inflammatory effect of the present compound was evaluated based on the rate. The concrete method of the test is described below.
A 2 mg/mL test compound suspension was prepared by adding 1% methyl cellulose (base) to the test compound.
1) The weight and right hind paw volume of female Lewis rat (8˜10 weeks) were measured before drug administration.
2) The test compound suspension was administered at 10 mg/kg to the test compound group. Meanwhile, 1% methyl cellulose was administered orally at 5 mL/kg to the sham-operation group and vehicle group (control group).
3) After 30 minutes from oral administration, 0.1 mL of a 1% w/v carrageenan/distilled water solution was subcutaneously injected into right foot pad. 0.1 mL of distilled water was subcutaneously injected for sham-operation group.
4) The right hind paw volume was measured 3 hr after injection of carrageenan or distilled water.
(Formulation Concerning Estimation of Drug Activity) The increase ratio of paw volume (%)=100×(right hind paw volume 3 hr after injection of carrageenan or distilled water (mL)−right hind paw volume before the test compound administration (mL))/right hind paw volume before the test compound administration (mL) (Calculation Equation 1) The inhibition ratio of paw edema (%)=100−100×(the increase ratio of paw volume of each test compound group (%)−the increase ratio of paw volume of sham-operation group (%))/(the increase of paw volume of vehicle group (%)−the increase of paw volume of sham-operation group (%)) (Calculation Equation 2) (Test Results and Discussion)

[3] = tested on: allergic conjunctivitis model in mice; assay: Inhibitory effect on vascular hyper-permeability in allergic conjunctivitis model; type: in vivo; conditions: male BALB/c mice, ovalbumin-sensitized; 1% (W/V) suspension instilled 15 min, 1 hr and 3 hrs before ovalbumin; Evans blue dye leakage; mean of 6 eyes
Experimental: In order to evaluate anti-allergic effect of the present compound, the inhibitory effect on the vascular hyper-permeability in allergic conjunctivitis model in mice was examined. This effect was calculated based on dye leakages of vehicle-treated group (control group) and test compound-treated group.
By adding 0.5% polysorbate 80/saline to the test compound, a 1% (W/V) test compound suspension was prepared.
1) Ovalbumin absorbed on aluminum hydroxide gel was dissolved in saline (20 μg ovalbumin/mL), and male BALB/c mice, 6 weeks old, were actively sensitized to the antigen by intraperitoneal injections of 500 μL of it.
2) On the 6th day from sensitization, sensitized mice were boosted by additional intraperitoneal injections of 500 μL ovalbumin absorbed on aluminum hydroxide gel (20 μg ovalbumin/mL).
3) On the 11th day, 12th day, 13th day, 14th day and 15th day from the first sensitization, allergic conjunctivitis were induced by instillations to the right eyes of the mice of […] of 50% glycerol solution containing 15% (W/V) ovalbumin.
4) […] of test compound suspension per eye was instilled to the right eye of the above mice 15 min, 1 hr and 3 hrs before ovalbumin instillation (three times) on the 15th day from sensitization. In vehicle-treated group (control group), the mice were instilled with 0.5% polysorbate 80/saline in substitution for test compound suspension.
5) Just before ovalbumin instillation on the 15th day from sensitization, all animals received a tail intravenous injection of 0.1% Evans blue dye. The right periocular tissues of the mice, which were the leaked parts of dye, were collected 30 min after ovalbumin instillation. The dye was extracted from the tissues with the dye extraction liquid. Then the absorbance of the dye extract was measured. The dye leakage was calculated from the absorbance value, and the inhibition ratio of the vascular hyper-permeability of test compound-treated group was calculated according to calculation equation 1. The inhibition ratio of the vascular hyper-permeability of test compound-treated group (%)=(1−Ax/Ao)×100 (Calculation Equation 1) • Ao: Dye leakage in vehicle-treated group (control group) • Ax: Dye leakage in test compound-treated group (Test Results and Discussion)

Compound	Emax [1] [%]	inhibition in vivo at 10 mg/kg [2] [%]	The inhibition ratio of the vascular hyper-permeability (%) [3] [%]
COc1cc(OS(=O)(=O)C2CC2)ccc1-c1ccc2c(c1CNc1cc(F)ccc1C)N(C)C(=O)C(C)(C)N2	81	52	–
CCCS(=O)(=O)Oc1ccc(-c2ccc3c(c2COc2cc(F)ccc2C)N(C)C(=O)C(C)(C)N3)c(OC)c1 [Compound No. 1-2, 8-(5-Fluoro-2-methylphenoxymethyl)-7-(2-methoxy-4-propyl-sulfonyloxyphenyl)-1,3,3-trimethyl-3,4-dihydro-1H-quinoxalin-2-one]	91	–	37
CCCCS(=O)(=O)Oc1ccc(-c2ccc3c(c2COc2cc(F)ccc2C)N(C)C(=O)C(C)(C)N3)c(OC)c1 [Compound No. 1-5, 7-(4-Butylsulfonyloxy-2-methoxyphenyl)-8-(5-fluoro-2-methyl-phenoxymethyl)-1,3,3-trimethyl-3,4-dihydro-1H-quinoxalin-2-one]	88	–	30
CCS(=O)(=O)Oc1ccc(-c2ccc3c(c2COc2cc(F)ccc2C)N(C)C(=O)C(C)(C)N3)c(OC)c1 [Compound No. 1-6, 7-(4-Ethylsulfonyloxy-2-methoxyphenyl)-8-(5-fluoro-2-methyl-phenoxymethyl)-1,3,3-trimethyl-3,4-dihydro-1H-quinoxalin-2-one]	86	63	–
COc1cc(OS(=O)(=O)C(C)C)ccc1-c1ccc2c(c1COc1cc(F)ccc1C)N(C)C(=O)C(C)(C)N2 [Compound No. 1-7, 8-(5-Fluoro-2-methylphenoxymethyl)-7-(4-isopropylsulfonyloxy-2-methoxyphenyl)-1,3,3-trimethyl-3,4-dihydro-1H-quinoxalin-2-one]	94	43	–
COc1cc(OS(=O)(=O)CC(C)C)ccc1-c1ccc2c(c1COc1cc(F)ccc1C)N(C)C(=O)C(C)(C)N2 [Compound No. 1-11, 8-(5-Fluoro-2-methylphenoxymethyl)-7-(4-isobutylsulfonyloxy-2-methoxyphenyl)-1,3,3-trimethyl-3,4-dihydro-1H-quinoxalin-2-one]	99	–	20
COc1cc(OS(=O)(=O)CCC(F)(F)F)ccc1-c1ccc2c(c1COc1cc(F)ccc1C)N(C)C(=O)C(C)(C)N2 [Compound No. 1-12, 8-(5-Fluoro-2-methylphenoxymethyl)-7-[2-methoxy-4-(3,3,3-trifluoro-propylsulfonyloxy)phenyl]-1,3,3-trimethyl-3,4-dihydro-1H-quinoxlin-2-one]	100	–	15
COc1cc(OS(=O)(=O)C2CCCC2)ccc1-c1ccc2c(c1COc1cc(F)ccc1C)N(C)C(=O)C(C)(C)N2 [Compound No. 1-16, 7-(4-Cyclopentylsulfonyloxy-2-methoxyphenyl)-8-(5-f1uoro-2-methylphenoxymethyl)-1,3,3-trimethly-3,4-dihydro-1H-quinoxalin-2-one]	91	–	18
CCCS(=O)(=O)Oc1ccc(-c2ccc3c(c2COC(=O)c2ccc(C)s2)N(C)C(=O)C(C)(C)N3)c(OC)c1 [Compound No. 1-22, 7-(2-Methoxy-4-propylsulfonyloxyphenyl)-8-(5-methylthiophen-2-ylcarbonyloxymethyl)-1,3,3-trimethyl-3,4-dihydro-1H-quinoxalin-2-one]	99	–	21
COc1cc(OS(=O)(=O)C(C)C)ccc1-c1ccc2c(c1COC(=O)c1ccc(C)s1)N(C)C(=O)C(C)(C)N2 [Compound No. 1-23, 7-(4-Isopropylsulfonyloxy-2-methoxyphenyl)-8-(5-methylthiophen-2-ylcarbonyloxymethyl)-1,3,3-trimethyl-3,4-dihydro-1H-quinoxalin-2-one]	83	–	10
COc1cc(OS(=O)(=O)C2CC2)ccc1-c1ccc2c(c1COc1cc([N+](=O)[O-])ccc1C)N(C)C(=O)C(C)(C)N2 [Compound No. 1-32, 7-(4-Cyclopropylsulfonyloxy-2-methoxyphenyl)-8-(2-methyl-5-nitrophenoxymethyl)-1,3,3-trimethyl-3,4-dihydro-1H-quinoxalin-2-one]	90	61	–
CCCS(=O)(=O)Oc1ccc(-c2ccc3c(c2CNc2cc(F)ccc2C)N(C)C(=O)C(C)(C)N3)c(OC)c1 [Compound No. 1-44, 8-(5-Fluoro-2-methylphenylaminomethyl)-7-(2-methoxy-4-propyl-sulfonyloxyphenyl)-1,3,3-trimethyl-3,4-dihydro-1H-quinoxalin-2-one]	88	–	22
COc1ccccc1NCc1c(-c2ccc(OS(=O)(=O)C(C)C)cc2OC)ccc2c1N(C)C(=O)C(C)(C)N2 [Compound No. 2-5]	74	40	–
COc1ccccc1NCc1c(-c2ccc(OS(=O)(=O)C3CCCC3)cc2OC)ccc2c1N(C)C(=O)C(C)(C)N2 [Compound No. 2-6, 7-(4-Cyclopentylsulfonyloxy-2-methoxypheny1)-8-(2-methoxyphenylaminomethyl)-1,3,3-trimethyl-3,4-dihydro-1H-quinoxalin-2-one]	82	–	13
CCCS(=O)(=O)Oc1ccc(-c2ccc3c(c2CNc2ccccc2OC)N(C)C(=O)C(C)(C)N3)c(OC)c1 [Compound No. 2-7, 8-(2-Methoxyphenylaminomethyl)-7-(2-methoxy-4-propylsulfonyl-oxyphenyl)-1,3,3-trimethyl-3,4-dihydro-1H-quinoxalin-2-one]	94	52	35
